The nature of data set [1]: Stability/conversion of esters in rat intestinal S9. Type of data set: in vitro ADME. The settings on record: intestinal S9, pH 7.4, read-out: T1/2 Rat Intestinal S9. In short, it runs like this:
(§1)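 Esters at 10 μM incubated at 37 °C with 0.8 mg/mL S9 (human intestinal without PMSF, rat liver or rat intestinal) or no enzyme, in 100 mM HEPES pH 7.4; sampled 0–60 min. LC-MS/MS tracked ester and hydrolysed active; first-order T1/2 from ester disappearance.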

A short description of data set [2]: Stability/conversion of esters in human intestinal S9. The note with it: intestinal S9 (without PMSF), pH 7.4, read-out: T1/2 Human Intestinal S9. In kind it is in vitro ADME. The method, boiled down: as §1
The nature of data set [3]: Stability/conversion of esters in human liver S9. In kind it is in vitro ADME. The settings on record: liver S9, pH 7.4, read-out: T1/2 Human Liver S9. In short, it runs like this:
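Ester test compounds (10 μM) were incubated at 37° C with human liver S9 at 0.8 mg/mL in 100 mM HEPES buffer, pH 7.4. Aliquots taken from 0 to 60 min were quenched in acetonitrile containing carbutamide internal standard, centrifuged, and analyzed by LC-MS/MS MRM; first-order half-lives came from loss of the parent ester.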

A short description of data set [4]: Stability in pH 7.4 buffer (no enzyme). Type of data set: physicochemical. The settings on record: HEPES buffer without enzyme, read-out: T1/2 pH 7.4 Buffer. The method, boiled down: as §1
The nature of data set [5]: Rat PK, intravenous and oral. The settings on record: for AUC: Sprague-Dawley, plasma, rat, IV 10 mg/kg, analyte = compound administered. In kind it is in vivo, Sprague-Dawley rats. As for the experimental part: Intravenous rat pharmacokinetics of exemplar compounds were determined in jugular vein cannulated Sprague-Dawley rats (n=3) (Harlan Laboratories, Indianapolis, Ind.) at a dose of 10 mg/kg. Compounds were dissolved and administered intravenously in 0.9% saline, pH 6.5 at a dose volume of 2 mL/kg. […] Oral pharmacokinetic studies were conducted with exemplar compounds at 10 mg/kg equivalents of carboxylic acids. Doses were dissolved and administered orally in 25:75 PEG400: water for injection, pH 4.5 at a dose volume of 10 mL/kg. […] Plasma samples were stored at −80° C. prior to bioanalysis.
Plasma samples were thawed on ice prior to processing. Samples (30 μL) were diluted and proteins precipitated with 180 μL of acetonitrile containing 0.1% formic acid and 250 ng/mL of carbutamide (N1-(butylcarbanoyl)-sulfanilamide, Sigma-Aldrich Catalog # S385433) as an internal standard. Samples were vortexed for 30 seconds, centrifuged at 3400 g for 10 minutes and the supernatant transferred to injection vials.
LC/MS/MS analysis was completed on an AB Sciex QTrap 6500 mass spectrometer in positive ionization mode, coupled to a Schimadzu Nexera LC system. A Waters Atlantis T3 (3 μm, 3.0×50 mm) column was used for chromatographic separation. Injection volume was […] The mobile phase consisted 0.1% formic acid in water (A) and 0.1% formic acid in acetonitrile (B), with a gradient of 2-98% B:A over two minutes.
Plasma concentration vs. time profiles following intravenous (IV) administration and oral (PO) administration of exemplar compounds were analyzed by non-compartment analysis using WinNonLin 6.4.

Data set [6] can be described thus: Stability/conversion of esters in rat liver S9. Type of data set: in vitro ADME. The settings on record: liver S9, pH 7.4, read-out: T1/2 Rat Liver S9. The method, boiled down:
as §1

Data set [7] addresses OXA-48 (Class D beta-lactamase) (Klebsiella pneumoniae, UniProt Q6XEC0). The experiment in a line: Inhibition of beta-lactamase enzymes (nitrocefin hydrolysis), OXA-48. In kind it is biochemical. The settings on record: read-out: Class D OXA-48 60 min IC50, nitrocefin 100 μM. The method, boiled down: (§2)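 Nitrocefin (100 μM) hydrolysis followed at 490 nm for 1 h in 0.1 M sodium phosphate pH 7.0, 10 mM NaHCO3, 0.005% Triton X-100, with 3-fold inhibitor dilutions from 100 μM to 62.7 pM. Progress curves fitted globally to give kinact/Ki or Ki; percent inhibition from best-fit absorbance fitted with Hill equation.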

The subject of another data set is E. coli WT (ATCC 25922). The experiment in a line: MIC, CLSI broth microdilution, beta-lactam with or without BLI. In kind it is cell-based. The settings on record: BLI at fixed 4 μg/ml. As to the method: (§3) The minimal inhibitory concentration (MIC) values against each organism and drug combination were determined using the Clinical and Laboratory Standards Institute guidelines (CLSI) broth microdilution methodology (CLSI M07-A10). The recommended quality control (QC) bacterial strains E. coli ATCC 25922, E. coli ATCC 35218 and Klebsiella pneumoniae ATCC 700603 were incorporated into each test according to the CLSI guidelines to assure that there was no variation between test dates (CLSI M100-S25). The MICs of these QC strains were within QC range on all test occasions. Drug containing plates were made using the master plate method. A cefpodoxime solution was prepared to 20× concentration and 2-fold serial dilutions were made in cation adjusted Mueller-Hinton Broth. Equal volumes of 20× examplar compounds at a fixed concentration were added to the master plate. 10 uL was stamped into daughter plates using a Tecan EVO robot. Organism suspensions were adjusted to a 0.5 McFarland standard and further diluted to yield a final inoculum between 3×10^5 and 7×10^5 colony-forming units (CFU)/mL. Bacterial inocula were made in sterile, cation adjusted Mueller-Hinton Broth (Beckton Dickinson). An inoculum volume of 1.1× concentration of 90 uL was added to wells (using a Tecan EVO robot). All inoculated microdilution plates were incubated in ambient air at 35° C. for 18-24 hours.
(§4) Following the procedure from Example 103, MICs were determined for several beta-lactams in presence of a fixed concentration (4 μg/mL) of exemplar compounds (Table 3) against 3 Enterobacteriaceae strains.
Background: Dilution methods test growth across graded concentrations, often in twofold steps.

In data set [8] the test system is C. freundii AmpC, TEM-1, CMY65. Described as above. Type of data set: cell-based. The settings on record: BLI at fixed 4 μg/ml. As to the method: as §3, §4
Data set [9] concerns Klebsiella pneumoniae SHV-18, OXA-2, OKP-6 (ATCC 700603). The description is as above. Type of data set: cell-based. The settings on record: BLI at fixed 4 μg/ml; K. pneumoniae ATCC 700603. As for the experimental part: as §3, §4
For data set [10], the target named is TEM-1 (Class A beta-lactamase) (Escherichia coli, UniProt P62593). The data set can be described thus: Inhibition of beta-lactamase enzymes (nitrocefin hydrolysis), TEM-1. Type of data set: biochemical. The settings on record: read-out: Class A TEM-1 60 min IC50, nitrocefin 100 μM. In short, it runs like this: as §2
Chain of TEM-1 (Class A beta-lactamase) (P62593 whole entry, looked up, species assumed): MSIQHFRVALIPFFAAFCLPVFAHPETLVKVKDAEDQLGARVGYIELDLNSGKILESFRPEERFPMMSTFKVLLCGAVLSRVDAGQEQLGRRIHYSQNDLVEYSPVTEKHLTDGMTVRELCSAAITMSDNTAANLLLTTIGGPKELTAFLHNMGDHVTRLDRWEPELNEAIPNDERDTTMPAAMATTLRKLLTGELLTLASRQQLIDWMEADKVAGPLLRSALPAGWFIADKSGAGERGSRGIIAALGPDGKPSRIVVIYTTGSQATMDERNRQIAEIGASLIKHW

Where a name gives a salt, the structure may show the parent alone.

Chain of OXA-48 (Class D beta-lactamase) (Q6XEC0 whole entry, looked up, species assumed): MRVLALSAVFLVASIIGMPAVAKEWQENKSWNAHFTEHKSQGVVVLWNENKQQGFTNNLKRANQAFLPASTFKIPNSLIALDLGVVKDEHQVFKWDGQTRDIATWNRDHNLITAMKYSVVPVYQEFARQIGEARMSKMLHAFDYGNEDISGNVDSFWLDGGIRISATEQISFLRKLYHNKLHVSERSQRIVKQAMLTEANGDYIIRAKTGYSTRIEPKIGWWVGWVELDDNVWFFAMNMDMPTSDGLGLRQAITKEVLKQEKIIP

With `CC1=C[C@@H]2CN(C(=O)N2O[C@H](F)C(=O)OC(C)C)[C@@H]1C(N)=O` [Example 12, propan-2-yl (2R)-{[(2S,5R)-2-carbamoyl-3-methyl-7-oxo-1,6-diazabicyclo[3.2.1]oct-3-en-6-yl]oxy}(fluoro)ethanoate], the half-life at 10 μM was determined as 3.88 h in data set [1]; 2.2 h in data set [2]; 0.267 h in [3]; 3.93 h in data set [4]; 0.233 h in [6]. In data set [5] (rat plasma, LC/MS/MS), the “Circulating concentrations of the ester in plasma” value was “Rapid hydrolysis precluded satisfactory analysis of circulating concentrations”.

Usually IC50 stands for the concentration that gives 50% inhibition. Usually AUC stands for concentration integrated over time. A higher AUC goes with high exposure. In the case of `CC1=C[C@@H]2CN(C(=O)N2O[C@@H](F)C(=O)O)[C@@H]1C(N)=O` [Example 3, (2S)-{[(2S,5R)-2-carbamoyl-3-methyl-7-oxo-1,6-diazabicyclo[3.2.1]oct-3-en-6-yl]oxy}(fluoro)ethanoic acid lithium salt], the 50% inhibitory concentration (IC50) in data set [7] was 0.015 µM. Further, in the data set with E. coli WT (ATCC 25922), the “MIC of cefixime in presence of BLI” value stood at 0.125 µg/mL, the “MIC of cefuroxime in presence of BLI” value was 0.02 µg/mL, the “MIC of faropenem in presence of BLI” value stood at 0.25 µg/mL and the “MIC of tebipenem in presence of BLI” value was no more than 0.06 µg/mL. Further, in data set [8], the “MIC of cefixime in presence of BLI” value was found to be 1 µg/mL, the “MIC of cefuroxime in presence of BLI” value is 1 µg/mL, the “MIC of faropenem in presence of BLI” value is 0.25 µg/mL and the “MIC of tebipenem in presence of BLI” value was no more than 0.06 µg/mL. For the same molecule, in data set [9], the “MIC of cefixime in presence of BLI” value was determined as 0.5 µg/mL, the “MIC of faropenem in presence of BLI” value was determined as 2 µg/mL and the “MIC of tebipenem in presence of BLI” value was 0.125 µg/mL. Besides, in [10], the IC50 was found to be 0.019 µM. Also, the AUC in data set [5] was 34.9 µM·h.

Turning to `CC1=C[C@@H]2CN(C(=O)N2O[C@H](F)C(=O)O)[C@@H]1C(N)=O` [Example 4, (2R)-{[(2S,5R)-2-carbamoyl-3-methyl-7-oxo-1,6-diazabicyclo[3.2.1]oct-3-en-6-yl]oxy}(fluoro)ethanoic acid lithium salt], in [7], the IC50 was found to be 0.015 µM. In the data set on E. coli WT (ATCC 25922), the “MIC of cefixime in presence of BLI” value was no more than 0.06 µg/mL, the “MIC of cefuroxime in presence of BLI” value was found to be 0.02 µg/mL, the “MIC of faropenem in presence of BLI” value was no more than 0.06 µg/mL and the “MIC of tebipenem in presence of BLI” value was no more than 0.06 µg/mL. For the same molecule, in data set [8], the “MIC of cefixime in presence of BLI” value is no more than 0.06 µg/mL, the “MIC of cefuroxime in presence of BLI” value is 0.02 µg/mL, the “MIC of faropenem in presence of BLI” value was no more than 0.06 µg/mL and the “MIC of tebipenem in presence of BLI” value is no more than 0.06 µg/mL. For the same molecule, in [9], the “MIC of cefixime in presence of BLI” value was no more than 0.06 µg/mL, the “MIC of faropenem in presence of BLI” value was determined as 1 µg/mL and the “MIC of tebipenem in presence of BLI” value was no more than 0.06 µg/mL. In addition, in [10], the IC50 came out at 0.00135 µM. Moreover, the AUC in data set [5] is 19.1 µM·h.

For the molecule `CC1=C[C@@H](C(N)=O)N2C[C@@H]1N(O[C@@H](F)C(=O)O)C2=O` [Example 34, (2S)-2-(((2S,5R)-2-carbamoyl-4-methyl-7-oxo-1,6-diazabicyclo[3.2.1]oct-3-en-6-yl)oxy)-2-fluoroacetic acid lithium salt], the IC50 in [7] stood at 0.019 µM. Moreover, in the data set on E. coli WT (ATCC 25922), the “MIC of cefixime in presence of BLI” value was no more than 0.06 µg/mL, the “MIC of cefuroxime in presence of BLI” value was less than 0.03125 µg/mL, the “MIC of faropenem in presence of BLI” value was no more than 0.06 µg/mL and the “MIC of tebipenem in presence of BLI” value was no more than 0.06 µg/mL. In data set [8], the “MIC of cefixime in presence of BLI” value was no more than 0.06 µg/mL, the “MIC of cefuroxime in presence of BLI” value was less than 0.03125 µg/mL, the “MIC of faropenem in presence of BLI” value is no more than 0.06 µg/mL and the “MIC of tebipenem in presence of BLI” value is no more than 0.06 µg/mL. In addition, in data set [9], the “MIC of cefixime in presence of BLI” value is no more than 0.06 µg/mL, the “MIC of cefuroxime in presence of BLI” value amounted to 1 µg/mL, the “MIC of faropenem in presence of BLI” value was 0.5 µg/mL and the “MIC of tebipenem in presence of BLI” value is no more than 0.06 µg/mL. The IC50 in [10] worked out at 0.026 µM. For the same molecule, in data set [5], the AUC amounted to 16.1 µM·h.

Source of the values: patent US10800778B2 (Entasis Therapeutics Limited, priority 2016, dated 2020).
